Measured values taken from ChEMBL document CHEMBL5352412, “Discovery of 1,2-diphenylethene derivatives as human DNA topoisomerase II catalytic inhibitors and antitumor agents” (Eur J Med Chem, 2022).
Active and inactive are the calls of the source. The rule behind the calls is not given here.

How the values were obtained:
MDA-MB-231 = assay: Antiproliferative activity against human MDA-MB-231 cells incubated for 72 hrs by CCK8 assay; format: functional, cell-based; settings: Homo sapiens, MDA-MB-231, 72 h
HCT-116 = assay: Antiproliferative activity against human HCT-116 cells incubated for 72 hrs by CCK8 assay; format: functional, cell-based; settings: HCT-116, 72 h
Homo sapiens = organism: Homo sapiens; assay: Selectivity index, ratio of IC50 for human CCL-226 cells to IC50 for human HepG2 cells
[1] = Selectivity index, ratio of IC50 for human BEAS-2B cells to IC50 for human HeLa cells; format: toxicity; settings: BEAS-2B cells versus HeLa cells, read-out: Ratio IC50
[2] = Selectivity index, ratio of IC50 for human BEAS-2B cells to IC50 for human HCT-116 cells; format: toxicity; settings: BEAS-2B cells versus HCT-116 cells, read-out: Ratio IC50
[3] = Selectivity index, ratio of IC50 for human BEAS-2B cells to IC50 for human PC-3 cells; format: toxicity; settings: BEAS-2B cells versus PC-3 cells, read-out: Ratio IC50
[4] = Selectivity index, ratio of IC50 for human BEAS-2B cells to IC50 for human HepG2 cells; format: toxicity; settings: BEAS-2B cells versus HepG2 cells, read-out: Ratio IC50
[5] = Selectivity index, ratio of IC50 for human HL-7702 cells to IC50 for human PC-3 cells; format: toxicity; settings: HL-7702 cells versus PC-3 cells, read-out: Ratio IC50
[6] = Selectivity index, ratio of IC50 for human HL-7702 cells to IC50 for human HepG2 cells; format: toxicity; settings: HL-7702 cells versus HepG2 cells, read-out: Ratio IC50
A549 = assay: Antiproliferative activity against human A549 cells incubated for 72 hrs by CCK8 assay; format: functional, cell-based; settings: A549, 72 h
[7] = target: T1, DNA topoisomerase 2-alpha (Homo sapiens, UniProt P11388); assay: Poison activity at human topoisomerase 2-alpha assessed as linear DNA formation at 100 to 200 microM; settings: dose 100-200 µM
T1 sequence (P11388 whole entry): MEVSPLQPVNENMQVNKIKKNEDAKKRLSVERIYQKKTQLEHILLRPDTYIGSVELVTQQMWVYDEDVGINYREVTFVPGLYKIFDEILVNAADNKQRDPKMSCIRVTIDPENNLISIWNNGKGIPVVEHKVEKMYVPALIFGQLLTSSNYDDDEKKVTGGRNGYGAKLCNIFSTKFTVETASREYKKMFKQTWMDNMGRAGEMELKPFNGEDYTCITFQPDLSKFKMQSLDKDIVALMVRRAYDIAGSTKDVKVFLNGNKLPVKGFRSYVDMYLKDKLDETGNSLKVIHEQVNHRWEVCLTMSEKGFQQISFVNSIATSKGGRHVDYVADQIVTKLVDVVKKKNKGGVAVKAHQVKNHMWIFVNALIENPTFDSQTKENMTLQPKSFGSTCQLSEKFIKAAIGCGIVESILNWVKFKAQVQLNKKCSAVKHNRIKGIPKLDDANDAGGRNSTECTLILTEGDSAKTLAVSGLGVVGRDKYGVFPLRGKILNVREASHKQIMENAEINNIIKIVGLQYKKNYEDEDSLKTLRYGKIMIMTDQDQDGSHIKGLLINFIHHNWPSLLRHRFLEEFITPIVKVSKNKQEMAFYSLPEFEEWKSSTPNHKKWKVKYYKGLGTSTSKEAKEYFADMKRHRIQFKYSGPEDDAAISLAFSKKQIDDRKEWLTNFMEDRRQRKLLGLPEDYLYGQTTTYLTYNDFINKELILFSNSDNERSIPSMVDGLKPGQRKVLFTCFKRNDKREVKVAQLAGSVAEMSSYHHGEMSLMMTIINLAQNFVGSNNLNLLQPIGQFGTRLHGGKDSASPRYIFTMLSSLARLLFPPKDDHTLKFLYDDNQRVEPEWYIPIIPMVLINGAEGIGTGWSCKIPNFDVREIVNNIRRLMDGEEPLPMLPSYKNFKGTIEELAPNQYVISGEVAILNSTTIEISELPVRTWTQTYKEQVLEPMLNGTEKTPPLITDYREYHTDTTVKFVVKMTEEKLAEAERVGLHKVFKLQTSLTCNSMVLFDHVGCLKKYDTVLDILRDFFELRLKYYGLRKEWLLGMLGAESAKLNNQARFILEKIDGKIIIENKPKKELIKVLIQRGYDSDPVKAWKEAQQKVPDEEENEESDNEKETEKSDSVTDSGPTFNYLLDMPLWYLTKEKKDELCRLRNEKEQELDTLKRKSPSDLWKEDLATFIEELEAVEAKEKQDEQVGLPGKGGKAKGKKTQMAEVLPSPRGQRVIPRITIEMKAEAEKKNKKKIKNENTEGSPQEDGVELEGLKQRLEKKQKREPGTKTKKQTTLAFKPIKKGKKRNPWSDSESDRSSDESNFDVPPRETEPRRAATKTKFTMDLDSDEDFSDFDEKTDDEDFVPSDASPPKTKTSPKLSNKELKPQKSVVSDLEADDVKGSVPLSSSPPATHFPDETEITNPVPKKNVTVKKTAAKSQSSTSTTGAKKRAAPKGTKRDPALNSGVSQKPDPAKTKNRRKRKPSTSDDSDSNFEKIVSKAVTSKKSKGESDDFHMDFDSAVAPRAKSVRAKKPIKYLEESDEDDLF

[8] = target: T1, DNA topoisomerase 2-alpha; assay: Inhibition of human topoisomerase 2-alpha using pBR322 DNA as substrate incubated for 1 hr in presence of ATP by malachite green phosphate method
HepG2 = assay: Induction of cell cycle arrest in human HepG2 cells assessed as accumulation of cells at G2/M phase at 1 uM incubated for 24 hrs by PI staining based flow cytometry analysis (reference value: 17.5%); format: functional
[9] = Toxicity in C57BL/6J mouse assessed as change in body weight at 500 mg/kg administered via gavage twice at day 1 and measured for 7 days; format: organism-based; settings: in vivo, po, 168 h, time 7 day
[10] = target: T1, DNA topoisomerase 2-alpha; assay: Inhibition of human topoisomerase 2-alpha assessed as reduction in relaxation of pBR322 DNA measured after 30 mins by agarose gel electrophoresis method

Compound: O=C(CCc1ccccc1)Nc1ccc(-c2ccc3cc(O)ccc3c2)cc1
- IC50 (MDA-MB-231): 200 nM
- IC50 (HCT-116): 200 nM
- Ratio IC50 (Homo sapiens): > 52.1
- selectivity ratio [1]: > 52.1
- selectivity ratio [2]: > 52.1
- selectivity ratio [3]: > 52.1
- selectivity ratio [4]: > 52.1
- selectivity ratio [5]: > 52.1
- selectivity ratio [6]: > 52.1
- IC50 (A549): 300 nM
- Activity [7]: inactive
- inhibition [8]: Dose-Dependent Effect
- Activity (HepG2): 84.1%
- Activity [9]: Non-Toxic
- IC50 [10]: 3.8 µM
